Data as given in publication PMC4306921 (Scientific Reports, 2015).
pEC50: −log10 of the molar value. Each block holds one compound with its values, some of them ahead of it.

Experiments:
Assay type in all cases: cell-based
CHO-K1 cells = settings: CHO-K1, no receptor plasmid, 10 μM 5-HT, 12–24 h
293T cells = settings: no receptor plasmid, 10 μM 5-HT, 12–24 h
5-HT2A receptor = 5-HT2A receptor (Homo sapiens, UniProt P28223); assay: CRE-luc luciferase reporter gene assay, 5-HT2A transfected CHO-K1 cells; settings: 5-HT2A transfected cells, 0.1 μM antagonist, 5-HT lower than 1 μM
Sequence of 5-HT2A receptor (P28223 whole entry): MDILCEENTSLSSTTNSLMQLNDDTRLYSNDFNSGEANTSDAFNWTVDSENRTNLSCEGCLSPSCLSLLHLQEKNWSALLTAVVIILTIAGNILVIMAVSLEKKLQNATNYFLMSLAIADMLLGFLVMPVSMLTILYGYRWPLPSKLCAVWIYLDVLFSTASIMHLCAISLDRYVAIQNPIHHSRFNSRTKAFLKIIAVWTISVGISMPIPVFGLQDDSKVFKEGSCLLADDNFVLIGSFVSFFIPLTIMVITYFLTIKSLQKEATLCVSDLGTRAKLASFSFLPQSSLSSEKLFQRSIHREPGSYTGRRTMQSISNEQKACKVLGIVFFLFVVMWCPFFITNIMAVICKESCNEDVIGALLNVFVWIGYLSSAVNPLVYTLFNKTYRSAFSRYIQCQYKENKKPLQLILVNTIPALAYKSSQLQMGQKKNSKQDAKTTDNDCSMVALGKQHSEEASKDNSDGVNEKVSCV

adenylyl cyclase = assay: FSK stimulation in the CRE-luc reporter gene assay system; settings: read-out: EC50 value of FSK in reporter gene assay system; data not shown

Compound: NCCc1c[nH]c2ccc(O)cc12 [5-HT]
nonspecific/endogenous activation of CRE-luc by 5-HT (CHO-K1 cells): no nonspecific and endogenous activation was observed
nonspecific/endogenous activation of CRE-luc by 5-HT (293T cells): significantly expression of luciferase was detected

suppression of luciferase reporter gene expression (5-HT2A receptor): significantly suppress
Compound: CSc1ccc2c(c1)C(N1CCN(C)CC1)Cc1ccccc1S2 (stereo not shown) [Methiothepin]

pEC50 (adenylyl cyclase): 6.11
Compound: C=C[C@@]1(C)CC(=O)[C@]2(O)[C@@]3(C)[C@@H](O)CCC(C)(C)[C@@H]3[C@H](O)[C@H](OC(C)=O)[C@@]2(C)O1 [FSK]
